Results on two molecules are retold here after patent US20100204343A1, “3-(4-HYDROXY-3-METHOXYPHENYL)-1-(4-HYDROXYPHENYL)-1-PROPANONE AND ITS USE AS ANTIOXIDANT” (SYMRISE GmbH & Co. KG, priority 2007, published 2010).

Values after ≈ are worked out from the molar mass of the structure shown.

One data set is described as follows: Stability studies. It counts as physicochemical. Particulars: in contrast to common antioxidants like Trolox, alpha-tocopherol or green tea extract.
Data set [1] can be described thus: ABTS assay, antioxidant capacity (cell free in vitro test). It counts as biochemical. Particulars: ABTS discolouration measured photometrically at 734 nm; 96-well plates, 5 concentrations. On the procedure:
The antioxidant capacity of 3-(4-hydroxy-3-methoxyphenyl)-1-(4-hydroxyphenyl)-1-propanone of formula (I) disclosed here was evaluated with the ABTS assay, a cell free in vitro test. The assay principle bases on the chemical reduction being accompanied by discolouration of the green coloured cationic radical 2,2′-Azinobis(3-ethylbenzothiazoline 6-sulfonic acid) (ABTS^+) by antioxidants. The grade of discolouration can be measured photometrically at 734 nm. The compound of formula (I) as well as standard antioxidants like Trolox, a water soluble alpha-tocopherol analog and green tea extract were tested on 96-well microtiter plates at 5 concentrations. Each concentration was tested in double in two independent experiments. IC50 values for the compound of formula (I) as well as for the comparative examples are depicted in table 1.
Therefore, the compound of formula (I) is a highly suitable new product either to protect biological systems from damage caused by free radicals of different type and origin or to extend the shelf life of products comprising highly unstable, easily oxidising molecules.

`COc1cc(CCC(=O)c2ccc(O)cc2)ccc1O` [3-(4-hydroxy-3-methoxyphenyl)-1-(4-hydroxyphenyl)-1-propanone]: the stability result in the data set “Stability studies” is on record as “highly stable”. In addition, the IC50 in data set [1] is 5 µg/mL (≈ 18.4 µM).
With `Cc1c(C)c2c(c(C)c1O)CCC(C)(C(=O)O)O2` (stereo not drawn) [Trolox, 6-hydroxy-2,5,7,8-tetramethylchroman-2-carboxylic acid, reference compound], in data set [1], the IC50 worked out at 6 µg/mL (≈ 24 µM).

The IC50 is the concentration needed to halve the response being measured. Low readings indicate higher potency, high ones lower potency.
